In paper PMC5360176 (Journal of clinical psychopharmacology, 2016):
“And” between values parts separate entries of the source, which are not always exact repeats. Equal values may be shown once. Read-outs that look alike come from different tables or passages of the source.

Key:
[1] = human, in vivo
clinical [2] = conditions: human, in vivo
[3] = human, in vivo; remark: listed apart in the source
[4] = human, in vivo; remark: listed apart in the source
[5] = cited from earlier work
CAII = conditions: high affinity RBC isoform; cited from earlier work
clinical [6] = conditions: human, in vivo; remark: listed apart in the source
clinical [7] = conditions: human, in vivo; remark: listed apart in the source
CAI = conditions: low affinity RBC isoform; cited from earlier work
[8] = oxycodone 30 mg p.o.
[9] = therapeutic dose of ~400 mg ACZ/day
[10] = noroxycodone in plasma after oxycodone + ACZ, Day 5
[11] = noroxycodone in plasma after oxycodone alone, Day 1
[12] = noroxycodone in plasma after oxycodone alone, Day 8

CC(=O)Nc1nnc(S(N)(=O)=O)s1 [ACZ, Acetazolamide]
Urinary excretion rate Cmax [1]: 669 µg/h
Slowest individual urinary elimination rate (low outlier) ([1]; 48 h): 87 µg/h
Fastest individual urinary elimination rate (high outlier) ([1]; 96 h): 33 µg/h
Tmax (clinical [2]): 7.2 h
Cmax [3]: 1285 ng/mL
Plasma Area under Curve [3]: 5568 ng/mlblood*h
Time of plasma maximum concentration (Cmax) after administration [3]: ≤ 1 h
Tmax [3]: 0.5 h
Blood Area under Curve [4]: 52130 ng/ml*h
RBCs (minus residuum) Area under Curve [4]: 49555 ng/mlblood*h
RBCs (total) Area under Curve [4]: 133107 ng/mlblood*h
RBC concentration with which side effects correlate ([5]; therapeutic (~400 mg / day) doses): exceed 90 µM
Mean RBC concentration [5, 9]: 121 ± 46 µM
Mean plasma concentration [5, 9]: 51 ± 40 µM
Maximum ACZ binding capacity (CAII): 17 µM
Cmax (clinical [6]; Blood Cmax): 776 ng/mL
Tmax (clinical [6]; Blood Tmax): 4.8 h
Cmax (clinical [6]; RBCs (minus residuum) Cmax): 636 ng/mL
Tmax (clinical [6]; RBCs (minus residuum) Tmax): 7.5 h
Cmax (clinical [6]; RBCs (total) Cmax): 1790 ng/mL
Cmax (clinical [6]; RBCtotal Cmax): 17 ± 1 µM
Cmax (clinical [7]; Cmax): 1310 ng/mL
Cmax (clinical [7]; Plasma Cmax): 660 ng/mL
Tmax (clinical [7]; Plasma Tmax): 1 h
Tmax (clinical [7]; Tmax): 1 h
Max binding capacity (CAI): 155 µM

COc1ccc2c3c1O[C@H]1C(=O)CC[C@@]4(O)[C@@H](C2)NCC[C@]314 [Noroxycodone]
Area under Curve [10]: 218 ng·h/mL
Cmax [10]: 30 ng/mL
Tmax [10]: 0.9 h
half-life [10]: 5.0 h
Cmax [11]: 34.9 ng/mL
Tmax [11]: 0.9 h
half-life [11]: 4.3 h
Area under Curve [12]: 213 ng·h/mL
Cmax [12]: 30.2 ng/mL
Tmax [12]: 0.9 h
half-life [12]: 4.7 h
Area under Curve (noroxycodone metabolite in plasma after oxycodone alone, Day 1, one-compartment): 224 ng·h/mL
Effect of ACZ on noroxycodone PK parameters (presence or absence of ACZ): no differences in any of the PK parameters

COc1ccc2c3c1O[C@H]1C(=O)CC[C@@]4(O)[C@@H](C2)N(C)CC[C@]314 [Oxycodone]
Tmax (human, in vivo, 30 mg): 1 h
Cmax (human, in vivo, 30 mg, Cmax, oxycodone alone, Day 1, plasma): 61.6 ng/mL
Cmax (human, in vivo, 30 mg, Cmax, oxycodone alone, Day 8, plasma): 68.5 ng/mL
half-life (human, in vivo, 30 mg, α-Half-life, oxycodone alone, Day 8, plasma): 0.14 ± 0.06 h
half-life (human, in vivo, 30 mg, β-Half-life, oxycodone alone, Day 1, plasma): 3.9 h
half-life (human, in vivo, 30 mg, β-Half-life, oxycodone alone, Day 8, plasma): 4.1 h
Cmax (human, in vivo, Cmax, oxycodone + ACZ, Day 5, plasma): 71.4 ng/mL
half-life (human, in vivo, α-Half-life, oxycodone + ACZ 15 mg, Day 5, plasma): 0.2 h
half-life (human, in vivo, β-Half-life, oxycodone + ACZ, Day 5, plasma): 4.1 h
Area under Curve (oxycodone + ACZ, Day 5, plasma): 341.3 ng·h/mL
Area under Curve (oxycodone alone, Day 1, plasma): 281.1 ^♦ h*ng/ml
Area under Curve (oxycodone alone, Day 8, plasma): 318.6 ng·h/mL
Tmax (oxycodone alone, Day 8, plasma): 1.0 h
α-Half-life (oxycodone alone, Day 8, plasma): 0.1 ^♦ h
Difference in oxycodone AUC (exposure), Day 5 with ACZ vs Day 1 alone (p<0.05, not different from Day 8): 20% and 20 ± 11%
Opioid Agonist Checklist scores as rated by subjects and observers [8]: increased scores on an Opioid Agonist Checklist
Pupil diameter [8]: sustained pupil miosis
Ratings on a visual analog scale of drug liking [8]: increased ratings on a visual analog scale of drug liking
